Data set [1] deals with Vaccinia virus, WR strain. The conditions noted are these: for TC50: toxic concentration in the Vaccinia virus screen; for activity against vaccinia virus (in words): summary of Table 1.
The test system of another data set is B. mallei (ATCC 23344). In words: microbe, parasite or virus in culture. It is filed as cell-based. The settings on record: Burkholderia mallei, ATCC23344.
Data set [2] concerns Vaccinia virus, WR strain. As to the kind of experiment: microbe, parasite or virus in culture. The settings on record: Orthopoxvirus vaccinia.
The test system of a further data set is E. coli (ATCC 25922). As to the kind of experiment: Test C: MIC against E. coli (ATCC 25922). The format is cell-based.
For a further data set, the system named is E. coli. As to the kind of experiment: microbe, parasite or virus in culture. The format is cell-based. The conditions noted are these: Escherichia coli.
The subject of data set [3] is B. pseudomallei (ATCC 23342). As to the kind of experiment: microbe, parasite or virus in culture. It is filed as cell-based. The settings on record: Burkholderia pseudomallei, ATCC23342.
The test system of the next data set is S. aureus (ATCC 29213). In words: Test C: MIC against S. aureus (ATCC 29213). The format is cell-based. The settings on record: Staphylococcus aureus, ATCC29213, CAMHB + IV.
For a further data set, the system named is anthrax. As to the kind of experiment: organism not typed. It is filed as cell-based.
The subject of the next data set is F. tularensis (SCHU4). In words: microbe, parasite or virus in culture. It is filed as cell-based. The settings on record: Francisella tularensis.
The subject of data set [4] is P. aeruginosa (ATCC 27853). In words: Test C: MIC against P. aeruginosa (ATCC 27853). It is filed as cell-based. The conditions noted are these: Pseudomonas aeruginosa, ATCC27853, P. aeruginosa (ATCC 27853).
A further data set deals with B. anthracis (Ames). As to the kind of experiment: microbe, parasite or virus in culture. It is filed as cell-based. The settings on record: Bacillus anthracis.
The subject of another data set is plague. As to the kind of experiment: organism not typed. It is filed as cell-based.
For a further data set, the system named is Y. pestis (CO92). In words: microbe, parasite or virus in culture. It is filed as cell-based. The conditions noted are these: Yersinia pestis.

This is an account of results in patent publication US8835507B2, “Adamantane derivatives possessing anti-viral and anti-microbial activity” (priority 2012, dated 2014).

For orientation: IC50 means the concentration that gives 50% inhibition. Read a high IC50 as a need for much substance.

≈ marks a conversion by molar mass, not a printed value. Like-named read-outs stand apart in the source and are kept apart here. A value given as a limit tells only on which side of the number the result lay.

As for `Nc1ccn(C[C@@H](CO)OCP(=O)(O)O)c(=O)n1` [Cidofir, reference compound], the “Comments (activity rating)” value in data set [1] (Vaccinia virus, WR strain) is reported as “Inactive”. This compound had a TC50 in [1] of more than 100 mg/L.

Consider `C(CNC12CC3CC(CC(C3)C1)C2)NC12CC3CC(CC(C3)C1)C2` [Compound 6], for which the MIC in the data set on B. mallei (ATCC 23344) is 2 mg/L (≈ 6.09 µM); in the data set on E. coli (ATCC 25922) (CAMHB + IV), “≦0.06 ug/ml”; with E. coli (ATCC 25922) (Escherichia coli, ATCC25922, CAMHB, read-out: MIC), not above 0.06 mg/L; in the data set on E. coli it was 4 to 8 mg/L (≈ 12.2 to 24.3 µM); in data set [3], 2 mg/L (≈ 6.09 µM); in the data set with S. aureus (ATCC 29213), 1 mg/L. The MIC in the data set on anthrax was 1 to 4 mg/L (≈ 3.04 to 12.2 µM); against F. tularensis (SCHU4) it was not above 0.06 mg/L; in data set [4] (CAMHB), 2 mg/L (≈ 6.09 µM); in data set [4] (CAMHB + IV), 4 mg/L; against B. anthracis (Ames), 0.25 mg/L (≈ 0.761 µM); in the data set with plague, 4 mg/L (≈ 12.2 µM). The same compound returned an MIC with Y. pestis (CO92) not above 0.06 mg/L. For the same compound, the IC50 in data set [2] stood at 0.32 mg/L (≈ 0.974 µM); in the data set on Pichinde virus it was 11 mg/L (≈ 33.5 µM); in the data set on Tacaribe virus, 6 mg/L (≈ 18.3 µM). For the same compound, the “Comments (activity rating)” value in data set [1] (Vaccinia virus, WR strain) was “Active”. The “activity against vaccinia virus (in words)” value in data set [1] was “moderate to high activity”. The TC50 in [1] turned out to be 5.58 mg/L (≈ 17 µM).

`ClN(CCN(Cl)C12CC3CC(CC(C3)C1)C2)C12CC3CC(CC(C3)C1)C2` [Compound 7]: the IC50 came out at 6.37 mg/L (≈ 16 µM) in data set [2], 3.4 mg/L (≈ 8.55 µM) in the data set with Pichinde virus and 17 mg/L (≈ 42.8 µM) in the data set with Tacaribe virus. For the same compound, in data set [1] (Vaccinia virus, WR strain), the “Comments (activity rating)” value is given as “Moderate”. Further, in data set [1], the “activity against vaccinia virus (in words)” value is reported as “moderate to high activity”. The compound further showed a TC50 in [1] of 63.40 mg/L (≈ 160 µM).

Turning to `NC(=O)c1ncn([C@@H]2O[C@H](CO)[C@@H](O)[C@H]2O)n1` [Ribivirin, reference compound], in data set [1] (Vaccinia virus, WR strain), the “Comments (activity rating)” value is “Moderate” and the IC50 was 27.90 mg/L (≈ 114 µM). In [1], the TC50 was more than 100 mg/L.
